Laboratory results as given in US10307413B2, “Tetrahydro- and dihydro-isoquinoline PRMT5 inhibitors and uses thereof” (Epizyme, Inc., priority 2013, dated 2019).

Assays:
[1] = system: symmetric di-methyl arginine in Z-138 cells; assay: Z-138 Methylation Assay (In Cell Western for symmetric di-methyl arginine and DNA content); format: cell-based; conditions: Homo sapiens, read-out: ICW EC50
In short: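 Z-138 cells (50,000 cells/mL) treated with compound 96 h at 37 °C, then fixed and stained for symmetric di-methyl arginine (800 nm) with DRAQ5 DNA counterstain (700 nm) on Licor Odyssey.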

Z-138 cell line = assay: Z-138 Proliferation Assay (Cell Titer Glo, 5 days); format: cell-based; conditions: Homo sapiens, 120 h; Z-138 cells, 5 days; read-out: Proliferation EC50
In short: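 Z-138 cells exposed 5 days at 37 °C, 5% CO2 to nine-point 3-fold dilutions (final top 20 μM, 0.2% DMSO), in triplicate. Viability read as ATP by CellTiter-Glo luminescence; IC50 from 4-parameter fit of normalized dose-response curves.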

| SMILES | EC50 [1] [nM] | EC50 (Z-138 cell line) [nM] |
| --- | --- | --- |
| O=C(NC[C@H](O)CN1CCc2ccccc2C1)c1ccnc(NC2CCOCC2)c1 [Compound 192] | < 100 | 101 to 1000 |
| CC(=O)N1CCC(Nc2cccc(C(=O)NC[C@H](O)CN3CCc4ccccc4C3)c2)CC1 [Compound 215] | < 100 | < 100 |
| COc1cc(CN2CCN(C)CC2)cc(C(=O)NCC(O)CN2CCc3ccccc3C2)c1 (stereo not shown) [Compound 160] | 101 to 1000 | 10000 to 50000 |
| COCCCOc1ccc(C(=O)NCC(O)CN2CCc3ccccc3C2)cc1 (stereo not shown) [Compound 146] | < 100 | 1000 to 10000 |
| CC1CC(Nc2cccc(C(=O)NC[C@@H](O)CN3CCc4ccccc4C3)c2)CC(C)O1 (stereo partly shown) [Compound 153] | < 100 | 101 to 1000 |
| O=C(NCC(O)CN1CCc2ccccc2C1)c1cccc(NC2CCOCC2O)c1 (stereo not shown) [Compound 98] | 101 to 1000 | 1000 to 10000 |
| O=C(NCC(O)CN1CCc2ccccc2C1)c1ccc(N2CCS(=O)(=O)CC2)cc1 (stereo not shown) [Compound 179] | < 100 | 1000 to 10000 |
| CS(=O)(=O)N1CC(Nc2cc(C(=O)NC[C@H](O)CN3CCc4ccccc4C3)ccn2)C1 [Compound 278] | < 100 | 101 to 1000 |
| [2H]C1([2H])Cc2ccccc2C([2H])([2H])N1C[C@@H](O)CNC(=O)c1cc(NC2COC2)ncn1 [Compound 337] | < 100 | 101 to 1000 |
| Cc1ccc(NC2CCOC2)cc1C(=O)NCC(O)CN1CCc2ccccc2C1 (stereo not shown) [Compound 96] | < 100 | 1000 to 10000 |
| C[C@@H]1CC(Nc2cccc(C(=O)NC[C@H](O)CN3CCc4ccccc4C3)c2)CCO1 (stereo partly shown) [Compound 168] | < 100 | 101 to 1000 |
| O=C(NCC(O)CN1CCc2ccccc2C1)c1cccc(-c2ccccn2)c1 (stereo not shown) [Compound 1, N-(3-(3,4-dihydroisoquinolin-2(1H)-yl)-2-hydroxypropyl)-3-(pyridin-2-yl)benzamide] | < 100 | 1000 to 10000 |
| O=C(NCC(O)CN1CCc2ccccc2C1)c1cn[nH]c1-c1ccccc1 (stereo not shown) [Compound 112] | 1000 to 10000 | > 20000 |
| COCCN1CCN(Cc2cccc(C(=O)NCC(O)CN3CCc4ccccc4C3)c2)CC1 (stereo not shown) [Compound 114] | 101 to 1000 | 10000 to 50000 |
| O=C(NCC(O)CN1CCc2ccccc2C1)c1ccn[nH]1 (stereo not shown) [Compound 148] | 1000 to 10000 | > 20000 |
| CS(=O)(=O)N1CC(Nc2cc(C(=O)NC[C@H](O)CN3CCc4ccccc4C3)ncn2)C1 [Compound 283] | < 100 | 101 to 1000 |
| O=C(NCC(O)CN1CCc2ccccc2C1)c1cccc(C2CCOC2)c1 (stereo not shown) [Compound 154] | 101 to 1000 | 1000 to 10000 |
| CN1CCC(CNc2cc(C(=O)NC[C@H](O)CN3CCc4ccccc4C3)ccn2)CC1 [Compound 292] | < 100 | 101 to 1000 |
| CC(=O)N1CCC(Oc2cc(C(=O)NC[C@H](O)CN3CCc4ccccc4C3)ncn2)CC1 [Compound 287] | < 100 | 101 to 1000 |
| O=C(NCC(O)CN1CCc2ccccc2C1)c1cccc(-n2cncn2)c1 (stereo not shown) [Compound 130] | 101 to 1000 | 10000 to 50000 |
| CS(=O)(=O)N1CCC(Oc2ccc(C(=O)NCC(O)CN3CCc4ccccc4C3)cc2)C1 (stereo not shown) [Compound 198] | < 100 | 101 to 1000 |
| Cc1c(NC2CCOCC2)cccc1C(=O)NCC(O)CN1CCc2ccccc2C1 (stereo not shown) [Compound 40, N-(3-(3,4-dihydroisoquinolin-2(1H)-yl)-2-hydroxypropyl)-2-methyl-3-((tetrahydro-2H-pyran-4-yl)amino)benzamide] | < 100 | 1000 to 10000 |
| O=C(NCC(O)CN1CCc2ccccc2C1)c1ccc(NC2CCOCC2)cc1 (stereo not shown) [Compound 66] | 101 to 1000 | 1000 to 10000 |
| NCCNc1cc(C(=O)NC[C@H](O)CN2CCc3ccccc3C2)ccn1 [Compound 320] | 101 to 1000 | 1000 to 10000 |
| COc1ccc2oc(C(=O)NC[C@H](O)CN3CCc4ccccc4C3)cc2c1 [Compound 250] | < 100 | 1000 to 10000 |
| O=C(NCC(O)CN1CCc2ccccc2C1)c1ccc(CN2CCOCC2)cc1 (stereo not shown) [Compound 145] | < 100 | 1000 to 10000 |
